Key:
Assay in all cases: Post-emergence efficacy, glasshouse spray test
Type in all cases: in vivo
[1] = system: Amaranthus palmeri (AMAPA); conditions: Application Rate 500 g/Ha, evaluated after 13 days; for pest or weed control at 500 g/ha: Amaranthus palmeri, post-emergence, 312 h, read-out: Control of weed species after post-emergence application, AMAPA (100=total damage to plant; 0=no damage to plant)
In short: (§1)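 Foliar application to young potted plants, 14 days from sowing, grown and held under controlled glasshouse conditions (24/16° C, 65% humidity). Adjuvant: 0.25% or 1% Empicol ESC70 + 1% ammonium sulphate. Assessed at 13 days on a 0–100 damage scale.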

[2] = system: Chenopodium album (CHEAL); conditions: Application Rate 500 g/Ha, evaluated after 13 days; for pest or weed control at 500 g/ha: Chenopodium album, post-emergence, 312 h, read-out: Control of weed species after post-emergence application, CHEAL (100=total damage to plant; 0=no damage to plant)
In short: as §1

[3] = system: Digitaria sanguinalis (DIGSA); conditions: Application Rate 500 g/Ha, evaluated after 13 days; for pest or weed control at 500 g/ha: Digitaria sanguinalis, post-emergence, 312 h, read-out: Control of weed species after post-emergence application, DIGSA (100=total damage to plant; 0=no damage to plant)
In short: as §1

[4] = system: Echinochloa crus-galli (ECHCG); conditions: Application Rate 500 g/Ha, evaluated after 13 days; for pest or weed control at 500 g/ha: Echinochloa crus-galli, post-emergence, 312 h, read-out: Control of weed species after post-emergence application, ECHCG (100=total damage to plant; 0=no damage to plant)
In short: as §1

Eleusine indica (ELEIN) = conditions: Application Rate 500 g/Ha, evaluated after 13 days; for pest or weed control at 500 g/ha: Eleusine indica, post-emergence, 312 h, read-out: Control of weed species after post-emergence application, ELEIN (100=total damage to plant; 0=no damage to plant)
In short: as §1

[5] = system: Euphorbia heterophylla (EPHHL); conditions: Application Rate 500 g/Ha, evaluated after 13 days; for pest or weed control at 500 g/ha: Euphorbia heterophylla, post-emergence, 312 h, read-out: Control of weed species after post-emergence application, EPHHL (100=total damage to plant; 0=no damage to plant)
In short: as §1

[6] = system: Ipomoea hederacea (IPOHE); conditions: Application Rate 500 g/Ha, evaluated after 13 days; for pest or weed control at 500 g/ha: Ipomoea hederacea, post-emergence, 312 h, read-out: Control of weed species after post-emergence application, IPOHE (100=total damage to plant; 0=no damage to plant)
In short: as §1

Lolium perenne (LOLPE) = conditions: Application Rate 500 g/Ha, evaluated after 13 days; for pest or weed control at 500 g/ha: Lolium perenne, post-emergence, 312 h, read-out: Control of weed species after post-emergence application, LOLPE (100=total damage to plant; 0=no damage to plant)
In short: as §1

Setaia fabei (SETFA) = conditions: Application Rate 500 g/Ha, evaluated after 13 days; for pest or weed control at 500 g/ha: Setaria faberi, post-emergence, 312 h, read-out: Control of weed species after post-emergence application, SETFA (100=total damage to plant; 0=no damage to plant)
In short: as §1

SMILES | pest or weed control at 500 g/ha [1] [%] | pest or weed control at 500 g/ha [2] [%] | pest or weed control at 500 g/ha [3] [%] | pest or weed control at 500 g/ha [4] [%] | pest or weed control at 500 g/ha (Eleusine indica (ELEIN)) [%] | pest or weed control at 500 g/ha [5] [%] | pest or weed control at 500 g/ha [6] [%] | pest or weed control at 500 g/ha (Lolium perenne (LOLPE)) [%] | pest or weed control at 500 g/ha (Setaia fabei (SETFA)) [%] | Control of weed species after post-emergence application, AMAPA (100=total damage to plant; 0=no damage to plant) [1] | Control of weed species after post-emergence application, CHEAL (100=total damage to plant; 0=no damage to plant) [2] | Control of weed species after post-emergence application, DIGSA (100=total damage to plant; 0=no damage to plant) [3] | Control of weed species after post-emergence application, ECHCG (100=total damage to plant; 0=no damage to plant) [4] | Control of weed species after post-emergence application, ELEIN (100=total damage to plant; 0=no damage to plant) (Eleusine indica (ELEIN)) | Control of weed species after post-emergence application, EPHHL (100=total damage to plant; 0=no damage to plant) [5] | Control of weed species after post-emergence application, IPOHE (100=total damage to plant; 0=no damage to plant) [6] | Control of weed species after post-emergence application, LOLPE (100=total damage to plant; 0=no damage to plant) (Lolium perenne (LOLPE)) | Control of weed species after post-emergence application, SETFA (100=total damage to plant; 0=no damage to plant) (Setaia fabei (SETFA))
O=C(O)CC[n+]1ccc(-c2ccsn2)cn1 [Compound A97] | 100 | 80 | 50 | 60 | 70 | 50 | 20 | 30 | 40 |  |  |  |  |  |  |  |  | 
COC(=O)CCC[n+]1ccc(-c2ncn(C)n2)cn1 [Compound A121] | 30 | 10 | 60 | 100 | 50 | 40 | 10 | 10 | 40 |  |  |  |  |  |  |  |  | 
O=S(=O)([O-])CC[n+]1ccc(-c2nc(C(F)(F)F)co2)cn1 [Compound A57] | 100 | 100 | 70 | 80 | 60 | 90 | 60 | 50 | 60 |  |  |  |  |  |  |  |  | 
COP(=O)(CCC[n+]1ccc(-c2ncco2)cn1)OC.[Br-] [Compound A76] |  |  |  |  |  |  |  |  |  | 30 | 20 | 60 | 30 | 70 | 40 | 30 | 30 | 40
Cc1nc(-c2cc[n+](CCS(=O)(=O)[O-])nc2)oc1C [Compound A14] | 100 | 40 | 50 | 40 | 70 | 50 | 40 | 40 | 50 |  |  |  |  |  |  |  |  | 
O=S(=O)([O-])OCC[n+]1ccc(-c2nccs2)cn1 [Compound A113] | 100 | 60 | 70 | 70 | 70 | 70 | 50 | 60 | 70 |  |  |  |  |  |  |  |  | 
O=C(O)CC[n+]1ccc(-c2ncsn2)cn1 [Compound A142, 3-[4-(1,2,4-thiadiazol-3-yl)pyridazin-1-ium-1-yl]propanoic acid 2,2,2-trifluoroacetate] | 100 | 90 | 100 | 100 | 100 | 100 | 30 | 90 | 90 |  |  |  |  |  |  |  |  | 
COC(=O)C[n+]1ccc(-c2nc(C)co2)cn1 [Compound A133] | 0 | 0 | 20 | 10 | 10 | 0 | 10 | 0 | 0 |  |  |  |  |  |  |  |  | 
Cc1nnc(-c2cc[n+](CCC(=O)O)nc2)o1 [Compound A140] | 10 | 0 | 70 | 20 | 90 | 0 | 0 | 10 | 70 |  |  |  |  |  |  |  |  | 

Source: patent US20210053957A1, “HERBICIDAL COMPOUNDS” (SYNGENTA PARTICIPATIONS AG, priority 2018, published 2021)
